Earlier results as cited in patent US20070243260A1, “Treatment of Childhood Asthma” (priority 2004, published 2007).

What was measured:
asthma [1] = conditions: single administration, metered-dose aerosol
asthma [2] = conditions: inhaled; up to 8 hours appears to be maximal

C[N+]1(C)CCC(OC(=O)C(O)(c2ccccc2)C2CCCC2)C1 (centres unmarked) [glycopyrrolate]
Period of bronchodilation (asthma [1]): 12 h | Duration of effective treatment (asthma [2]): up to 12 hours
